Data taken from patent US4264577A, “Contraceptive methods and compositions” (Eli Lilly and Company, priority 1980, dated 1981).

How the values were obtained:
[1] = tested on: sperm; assay: Standard in vitro spermicidal tests (kill or immobilize sperm); type: cell-based; conditions: standard in vitro tests: ability to kill or immobilize sperm
Excerpt: The alkyl or alkenyl sulfate salts have surface-active properties, and the sodium salts of dodecyl sulfate (lauryl sulfate), tetradecyl sulfate (myristyl sulfate), and hexadecyl sulfate (cetyl sulfate) are particularly useful surfactants for many applications. Sodium lauryl sulfate, for example, is widely used in topical creams, lotions and other preparations used for pharmaceutical or cosmetic purposes. A mixture of sodium lauryl sulfate and sodium myristyl sulfate is used commercially as a wetting agent, primarily in the paper industry. It is well known that surfactants may denature proteins when present in aqueous solutions in sufficient concentrations because the surface activity may affect peptide conformation.

[2] = tested on: virgin dutch belted female rabbit; assay: Antifertility effect by intravaginal administration (K-Y jelly mixture); type: in vivo; conditions: 1 ml of K-Y jelly mixed with equal volume of 10 mg./ml. solution, 4 animals
Protocol: Equal volumes of K-Y-jelly® and either Ca^++ free Ringer's solution or a 10 mg./ml. solution of the compound to be tested in Ca^++ free Ringer's solution are well mixed. One milliliter of this is placed into the vagina of a virgin dutch belted female rabbit using a syringe. The female is then immediately bred to a fertile buck. The female is injected I.V. with […] of human chorionic gonadotrophin to assure a good ovulation rate.
After approximately 14 days the females are sacrificed by cervical dislocation and the genital system examined for the number of embryos.

[3] = Drug release rate in vitro from dimethylpolysiloxane rubber rod, Method B (water, methylene blue method); type: physicochemical; conditions: rod 341.4 mg, 10% W/W
Protocol: A dimethylpolysiloxane rubber rod (3 cm. long, 3 mm. diameter) weighing 341.4 mg. and containing 10% (W/W) of dispersed sodium n-tetradecyl sulfate (prepared by Example 3, Method B, lot no. 225-1) is placed in a container and is covered with 10 ml. of water. The rod and the water are incubated together at 37° C. for a seven-day period, after which the water is removed. The sodium n-tetradecyl sulfate in the water is determined by the methylene blue method as described by K. Hiyashi, Analytical Biochemistry, 67, 503 (1975).
The above procedure may be repeated at 7-day intervals by adding fresh water to the rod after each removal of water for assay. Table 5, below, gives the results of a test performed as above-described for 140 days.

[4] = tested on: zona pellucida of rabbit ova; assay: Removal of zona pellucida from ova by acrosin, in vitro; type: cell-based; conditions: 10 μl. of 10 mg./ml. solution, 37° C.; sulfate
Protocol: In the absence of sodium n-tetradecyl sulfate, complete removal of the cumulus oophorus and zona pellucida is observed.
Female rabbits are given 100 units of pregnant mares serum (PMS), IM, and 134 units of HCG, IV. After 13 hours the animals are sacrificed and the ovaries are excised. The ovaries are submerged in calcium-free Ringer's solution. Ova are removed and placed in 1 ml. of calcium-free Ringer's solution The solutions are all shaken vigorously for 5 to 10 minutes, which rids the ova of the cumulus oophorus and the corona radiata. Acrosin (isolated from boar sperm) (100 μl., of a solution containing 2000 U/ml. in 0.1 M sodium acetate and 0.02 M calcium chloride) is added to each of 10 ova. To each of 10 other ova in the same medium is added 10 μl. of solution of sodium n-tetradecyl sulfate (10 mg./ml.) in calcium-free Ringer's solution. To 10 other ova is added […]. of calcium-free Ringer's solution as a control. The solutions are all incubated at 37° C. The zona pellucida is observed at 15 minute intervals with an American Optical stereomicroscope. In the absence of sodium n-tetradecyl sulfate, the zona pellucida is completely removed.

CCCCCCCCCCCCCCOS(=O)(=O)[O-].[Na+] [n-tetradecyl, sodium n-tetradecyl sulfate]
classical spermicidal activity [1]: does not show classical spermicidal activity
Avg. No. of Embryos per animal [2]: 0
No. of embryos [2]: 0
Amount of sodium n-tetradecyl sulfate released Per day Calc. ([3]; Day 7): 1.3 µg
Amount of sodium n-tetradecyl sulfate released Per 7 days ([3]; Day 7, 10 ml water 37° C.): 9 µg
Amount of sodium n-tetradecyl sulfate released Per 7 days ([3]; Day 14): 1.9 µg
Amount of sodium n-tetradecyl sulfate released Per day Calc. ([3]; Day 14): 0.3 µg
Amount of sodium n-tetradecyl sulfate released Per 7 days ([3]; Day 21): 34.2 µg
Amount of sodium n-tetradecyl sulfate released Per day Calc. ([3]; Day 21): 4.9 µg
Amount of sodium n-tetradecyl sulfate released Per 7 days ([3]; Day 28): 160 µg
Amount of sodium n-tetradecyl sulfate released Per day Calc. ([3]; Day 28): 22.8 µg
Amount of sodium n-tetradecyl sulfate released Per 7 days ([3]; Day 35): 290 µg
Amount of sodium n-tetradecyl sulfate released Per day Calc. ([3]; Day 35): 41.4 µg
Amount of sodium n-tetradecyl sulfate released Per 7 days ([3]; Day 42): 144 µg
Amount of sodium n-tetradecyl sulfate released Per day Calc. ([3]; Day 42): 20.6 µg
Amount of sodium n-tetradecyl sulfate released Per 7 days ([3]; Day 49): 947 µg
Amount of sodium n-tetradecyl sulfate released Per day Calc. ([3]; Day 49): 135.3 µg
Amount of sodium n-tetradecyl sulfate released Per 7 days ([3]; Day 56): 133 µg
Amount of sodium n-tetradecyl sulfate released Per day Calc. ([3]; Day 56): 19 µg
Amount of sodium n-tetradecyl sulfate released Per 7 days ([3]; Day 63): 111 µg
Amount of sodium n-tetradecyl sulfate released Per day Calc. ([3]; Day 63): 16 µg
Amount of sodium n-tetradecyl sulfate released Per 7 days ([3]; Day 70): 333 µg
Amount of sodium n-tetradecyl sulfate released Per day Calc. ([3]; Day 70): 47.5 µg
Amount of sodium n-tetradecyl sulfate released Per 7 days ([3]; Day 77): 111 µg
Amount of sodium n-tetradecyl sulfate released Per day Calc. ([3]; Day 77): 16.0 µg
Amount of sodium n-tetradecyl sulfate released Per 7 days ([3]; Day 84): 0 µg
Amount of sodium n-tetradecyl sulfate released Per day Calc. ([3]; Day 84): 0 µg
Amount of sodium n-tetradecyl sulfate released Per 7 days ([3]; Day 91): 105 µg
Amount of sodium n-tetradecyl sulfate released Per day Calc. ([3]; Day 91): 15 µg
Amount of sodium n-tetradecyl sulfate released Per 7 days ([3]; Day 98): 644 µg
Amount of sodium n-tetradecyl sulfate released Per day Calc. ([3]; Day 98): 92 µg
Amount of sodium n-tetradecyl sulfate released Per 7 days ([3]; Day 105): 1477 µg
Amount of sodium n-tetradecyl sulfate released Per day Calc. ([3]; Day 105): 211 µg
Amount of sodium n-tetradecyl sulfate released Per 7 days ([3]; Day 112): 430 µg
Amount of sodium n-tetradecyl sulfate released Per day Calc. ([3]; Day 112): 61.4 µg
Amount of sodium n-tetradecyl sulfate released Per 7 days ([3]; Day 119): 600 µg
Amount of sodium n-tetradecyl sulfate released Per day Calc. ([3]; Day 119): 85.7 µg
Amount of sodium n-tetradecyl sulfate released Per 7 days ([3]; Day 126): 1500 µg
Amount of sodium n-tetradecyl sulfate released Per day Calc. ([3]; Day 126): 214.3 µg
Amount of sodium n-tetradecyl sulfate released Per 7 days ([3]; Day 133): 2600 µg
Amount of sodium n-tetradecyl sulfate released Per day Calc. ([3]; Day 133): 371 µg
Amount of sodium n-tetradecyl sulfate released Per 7 days ([3]; Day 140): 4000 µg
Amount of sodium n-tetradecyl sulfate released Per day Calc. ([3]; Day 140): 571 µg
Percent of compound released after 140 days ([3]; initial amount 34.14 mg.): 37%
Total amount of compound released after 140 days ([3]; initial amount 34.14 mg.): 12.63 mg
state of zona pellucida in presence of acrosin [4]: remains substantially intact
